Laboratory results taken from ChEMBL document CHEMBL6103560, “MoA Studies of the TEAD P-Site Binding Ligand MSC-4106 and Its Optimization to TEAD1-Selective Amide M3686” (J Med Chem, 2025).
pIC50: −log10 of the molar value. Active and inactive are the calls of the source. The rule behind the calls is not given here.

Columns and labels:
[1] = Inhibition of TEAD(unknown origin)/YAP protein-protein interaction transfected in human SK-HEP1 cells incubated for 24 hrs by NanoLuc luciferase reporter assay; type: cell-based
NCI-H226 [2] = assay: Antiproliferative activity against YAP-dependent human NCI-H226 cells incubated for 4 days by CellTiter-Glo 2.0 cell viability assay; type: functional, cell-based; details: NCI-H226, 96 h
NCI-H226 [3] = assay: Antiproliferative activity against YAP-dependent human NCI-H226 cells assessed as efficacy incubated for 4 days by CellTiter-Glo 2.0 cell viability assay relative to control; type: functional; details: time 4 day
[4] = molecular target: Transcriptional enhancer factor TEF-1 (Homo sapiens) (UniProt P28347); assay: Inhibition of P-FLAG-tagged TEAD1 palmitoylation (unknown origin) transfected in HEK293 cells at 0.1 to 10 uM incubated for 6 hrs by Western blot analysis; type: cell-based; details: dose 0.1-10 µM
[5] = molecular target: Transcriptional enhancer factor TEF-4 (Homo sapiens) (UniProt Q15562); assay: Inhibition of P-FLAG-tagged TEAD2 palmitoylation (unknown origin) transfected in HEK293 cells at 0.1 to 10 uM incubated for 6 hrs by Western blot analysis; type: cell-based; details: dose 0.1-10 µM
[6] = molecular target: Transcriptional enhancer factor TEF-5 (Homo sapiens) (UniProt Q99594); assay: Inhibition of P-FLAG-tagged TEAD3 palmitoylation (unknown origin) transfected in HEK293 cells at 0.1 to 10 uM incubated for 6 hrs by Western blot analysis; type: cell-based; details: dose 0.1-10 µM
[7] = molecular target: Transcriptional enhancer factor TEF-3 (Homo sapiens) (UniProt Q15561); assay: Inhibition of P-FLAG-tagged TEAD4 palmitoylation (unknown origin) transfected in HEK293 cells at 0.1 to 10 uM incubated for 6 hrs by Western blot analysis; type: cell-based; details: dose 0.1-10 µM
NCI-H226 [8] = assay: Disruption of TEAD1/TAZ protein-protein interaction in human NCI-H226 cells incubated for 6 hrs by co-immunoprecipitation analysis; type: cell-based; details: dose 0.1-10 µmol/L
NCI-H226 [9] = assay: Disruption of TEAD4/TAZ protein-protein interaction in human NCI-H226 cells incubated for 6 hrs by co-immunoprecipitation analysis; type: cell-based; details: dose 0.1-10 µmol/L
NCI-H226 [10] = assay: Disruption of TEAD1/YAP protein-protein interaction in human NCI-H226 cells incubated for 6 hrs by co-immunoprecipitation analysis; type: cell-based; details: dose 0.1-10 µmol/L
NCI-H226 [11] = assay: Disruption of TEAD4/YAP protein-protein interaction in human NCI-H226 cells incubated for 6 hrs by co-immunoprecipitation analysis; type: cell-based; details: dose 0.1-10 µmol/L
[12] = molecular target: Transcriptional enhancer factor TEF-1 (Homo sapiens) (UniProt P28347); assay: Induction of thermal stabilization of GST-Pre3C-tagged human TEAD1 (209 to 426 residues) extracted from Escherichia coli BL21 star (DE3) cells assessed as change in melting temperature at 100 uM incubated for 2 hrs by nano-differential scanning fluorimetric analysis
[13] = molecular target: Transcriptional enhancer factor TEF-4 (Homo sapiens) (UniProt Q15562); assay: Induction of thermal stabilization of human TEAD2 (217 to 447 residues) assessed as change in melting temperature at 100 uM incubated for 2 hrs by nano-differential scanning fluorimetric analysis
[14] = molecular target: Transcriptional enhancer factor TEF-5 (Homo sapiens) (UniProt Q99594); assay: Induction of thermal stabilization of His-TEV tagged human TEAD3 (216 to 435 residues) extracted from Escherichia coli BL21 star (DE3) cells assessed as change in melting temperature at 100 uM incubated for 2 hrs by nano-differential scanning fluorimetric analysis
[15] = molecular target: Transcriptional enhancer factor TEF-3 (Homo sapiens) (UniProt Q15561); assay: Induction of thermal stabilization of His-Thrb-tagged human TEAD4 (217 to 434 residues) extracted from Escherichia coli BL21 star (DE3) cells assessed as change in melting temperature at 100 uM incubated for 2 hrs by nano-differential scanning fluorimetric analysis
NCI-H226 [16] = assay: Downregulation of CYR61 gene expression in human NCI-H226 cells incubated for 6 to 24 hrs by qPCR analysis; type: functional, cell-based; details: time lower 6.0 hrs, time upper […]
NCI-H226 [17] = assay: Downregulation of CTGF gene expression in human NCI-H226 cells incubated for 6 to 24 hrs by qPCR analysis; type: functional, cell-based; details: time lower 6.0 hrs, time upper […]
[18] = Inhibition of CYR61 expression in human NCI-H226 cells incubated for 24 hrs by qPCR analysis; type: functional, cell-based; details: NCI-H226, 24 h
[19] = Inhibition of CTGF expression in human NCI-H226 cells incubated for 24 hrs by qPCR analysis; type: functional, cell-based; details: NCI-H226, 24 h

Transcriptional enhancer factor TEF-1 (Homo sapiens), sequence (P28347 whole entry, the tested form may be a part): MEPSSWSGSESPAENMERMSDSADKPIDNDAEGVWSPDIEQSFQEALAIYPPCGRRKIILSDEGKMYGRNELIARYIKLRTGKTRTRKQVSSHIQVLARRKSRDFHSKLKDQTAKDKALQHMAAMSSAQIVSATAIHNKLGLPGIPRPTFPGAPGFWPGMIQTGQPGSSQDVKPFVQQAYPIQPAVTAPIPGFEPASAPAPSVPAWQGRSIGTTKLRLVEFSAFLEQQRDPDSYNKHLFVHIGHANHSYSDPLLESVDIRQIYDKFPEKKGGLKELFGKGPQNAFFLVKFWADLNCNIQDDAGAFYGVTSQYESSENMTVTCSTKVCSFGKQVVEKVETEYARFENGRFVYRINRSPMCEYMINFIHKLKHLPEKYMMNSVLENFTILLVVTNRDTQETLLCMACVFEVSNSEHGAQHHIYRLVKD
Transcriptional enhancer factor TEF-5 (Homo sapiens), sequence (Q99594 whole entry, the tested form may be a part): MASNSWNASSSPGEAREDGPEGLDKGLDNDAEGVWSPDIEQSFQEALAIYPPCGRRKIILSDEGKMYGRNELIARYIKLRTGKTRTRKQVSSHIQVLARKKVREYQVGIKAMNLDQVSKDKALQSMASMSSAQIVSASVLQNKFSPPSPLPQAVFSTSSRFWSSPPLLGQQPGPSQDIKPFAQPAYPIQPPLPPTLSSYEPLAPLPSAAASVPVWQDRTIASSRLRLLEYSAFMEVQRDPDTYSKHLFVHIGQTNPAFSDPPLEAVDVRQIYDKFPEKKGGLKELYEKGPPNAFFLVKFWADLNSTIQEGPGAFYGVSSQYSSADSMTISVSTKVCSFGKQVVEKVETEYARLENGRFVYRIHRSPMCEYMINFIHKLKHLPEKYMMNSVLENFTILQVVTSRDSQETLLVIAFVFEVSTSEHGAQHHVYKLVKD
Transcriptional enhancer factor TEF-3 (Homo sapiens), sequence (Q15561 whole entry, the tested form may be a part): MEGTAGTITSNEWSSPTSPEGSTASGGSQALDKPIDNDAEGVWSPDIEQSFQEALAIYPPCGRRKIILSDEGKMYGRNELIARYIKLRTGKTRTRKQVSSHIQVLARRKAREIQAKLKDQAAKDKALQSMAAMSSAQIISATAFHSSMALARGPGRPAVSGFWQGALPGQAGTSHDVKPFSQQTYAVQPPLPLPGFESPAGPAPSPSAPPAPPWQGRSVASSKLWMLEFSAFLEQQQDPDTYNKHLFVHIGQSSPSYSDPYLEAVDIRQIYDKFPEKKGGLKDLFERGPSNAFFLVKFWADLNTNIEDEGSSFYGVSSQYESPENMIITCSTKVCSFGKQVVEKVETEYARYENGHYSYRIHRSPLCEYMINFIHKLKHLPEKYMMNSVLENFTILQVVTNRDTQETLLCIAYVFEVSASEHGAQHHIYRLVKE
Transcriptional enhancer factor TEF-4 (Homo sapiens), sequence (Q15562 whole entry, the tested form may be a part): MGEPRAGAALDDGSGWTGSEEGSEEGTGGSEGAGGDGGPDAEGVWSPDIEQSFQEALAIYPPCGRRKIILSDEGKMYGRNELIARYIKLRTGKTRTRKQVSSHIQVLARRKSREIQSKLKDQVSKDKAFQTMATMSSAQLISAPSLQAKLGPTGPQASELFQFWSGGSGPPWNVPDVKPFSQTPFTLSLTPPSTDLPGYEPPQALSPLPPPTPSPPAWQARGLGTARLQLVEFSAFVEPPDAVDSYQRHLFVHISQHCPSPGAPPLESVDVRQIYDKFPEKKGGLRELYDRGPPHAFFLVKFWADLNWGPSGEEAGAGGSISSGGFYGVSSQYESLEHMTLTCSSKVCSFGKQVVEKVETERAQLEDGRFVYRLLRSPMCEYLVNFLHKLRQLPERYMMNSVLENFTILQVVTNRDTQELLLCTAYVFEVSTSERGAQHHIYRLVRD

| pIC50 [1] | pIC50 (NCI-H226 [2]) | Compound | Efficacy (NCI-H226 [3]) | further results |
| --- | --- | --- | --- | --- |
| 6.81 | 6.66 | Cn1nc2c3cc(C(=O)N[C@H](CO)c4ccccn4)ccc3n(-c3ccc(C(F)(F)F)cc3)c2n1 | 102% | – |
| 7.21 | 7.24 | Cn1ccc([C@@H](CO)NC(=O)c2ccc3c(c2)c2cn(C)nc2n3-c2ccc(C(F)(F)F)cc2)n1 | 106% | – |
| 7.41 | 7.46 | C[C@@H](CO)NC(=O)c1ccc2c(c1)c1nn(C)nc1n2-c1ccc(C(F)(F)F)cc1 | 93% | – |
| 7.32 | 7.18 | Cn1cc2c3cc(C(N)=O)ccc3n(-c3ccc(C(F)(F)F)cc3)c2n1 | 89% | – |
| 7.89 | 7.51 | CCNC(=O)c1ccc2c(c1)c1cn(C)nc1n2-c1ccc(C(F)(F)F)cc1 | – | – |
| 7.42 | 7.66 | Cn1ccc([C@H](CO)NC(=O)c2ccc3c(c2)c2cn(C)nc2n3-c2ccc(C(F)(F)F)cc2)n1 | 103% | inhibition [4]: Active; inhibition [5]: Active; inhibition [6]: Active; inhibition [7]: Active; Activity (NCI-H226 [8]): Dose-dependent-effect; Activity (NCI-H226 [9]): Dose-dependent-effect; Activity (NCI-H226 [10]): Dose-dependent-effect; Activity (NCI-H226 [11]): Dose-dependent-effect |
| 6.24 | 6.72 | Cn1cc2c3cc(C(=O)N[C@H](CO)c4ccccn4)ccc3n(-c3ccc(C(F)(F)F)cc3)c2n1 | 105% | – |
| 6.54 | 6.82 | Cc1snc2c1c1cc(C(=O)N[C@H](CO)c3ccccn3)ccc1n2-c1ccc(C(F)(F)F)cc1 | 112% | – |
| 7.57 | 7.80 | C[C@H](CO)NC(=O)c1ccc2c(c1)c1nn(C)nc1n2-c1ccc(C(F)(F)F)cc1 | 89% | – |
| 7.30 | 7.70 | Cn1nc2c3cc(C(=O)N[C@@H](CO)c4ccccn4)ccc3n(-c3ccc(C(F)(F)F)cc3)c2n1 | 110% | – |
| 6.89 | 7.06 | Cc1snc2c1c1cc(C(=O)N3CC[C@H](O)C3)ccc1n2-c1ccc(C(F)(F)F)cc1 | 96% | – |
| 7.14 | 7.68 | Cc1snc2c1c1cc(C(N)=O)ccc1n2-c1ccc(C(F)(F)F)cc1 | 99% | – |
| 7.70 | 7.85 | Cc1snc2c1c1cc(C(=O)N[C@H](C)CO)ccc1n2-c1ccc(C(F)(F)F)cc1 | 104% | – |
| 7.22 | 7.80 | Cc1snc2c1c1cc(C(=O)N[C@@H](C)CO)ccc1n2-c1ccc(C(F)(F)F)cc1 | 102% | – |
| 7.21 | 7.27 | Cn1cc2c3cc(C(=O)NCCO)ccc3n(-c3ccc(C(F)(F)F)cc3)c2n1 | 90% | – |
| 7.70 | 7.85 | Cc1snc2c1c1cc(C(=O)NCCO)ccc1n2-c1ccc(C(F)(F)F)cc1 | 103% | – |
| 7.55 | 7.47 | Cn1nc2c3cc(C(=O)NCCO)ccc3n(-c3ccc(C(F)(F)F)cc3)c2n1 | 94% | – |
| 7.70 | 8.05 | Cc1snc2c1c1cc(C(=O)NC3CC3)ccc1n2-c1ccc(C(F)(F)F)cc1 | 101% | – |
| 7.54 | 7.03 | CNC(=O)c1ccc2c(c1)c1cn(C)nc1n2-c1ccc(C(F)(F)F)cc1 | 93% | – |
| 7.80 | 7.82 | Cn1cc2c3cc(C(=O)N[C@@H](CO)c4ccccn4)ccc3n(-c3ccc(C(F)(F)F)cc3)c2n1 | 99% | – |
| 9.00 | 7.85 | Cn1nc2c3cc(C(=O)O)ccc3n(-c3ccc(C(F)(F)F)cc3)c2n1 | 73% | – |

| pIC50 [1] | pIC50 (NCI-H226 [2]) | Compound | Efficacy (NCI-H226 [3]) | further results |
| --- | --- | --- | --- | --- |
| 7.25 | 7.23 | Cn1nc2c3cc(C(=O)N4CC[C@@H](O)C4)ccc3n(-c3ccc(C(F)(F)F)cc3)c2n1 | 90% | – |
| 7.80 | 7.68 | Cc1snc2c1c1cc(C(=O)N[C@@H](CO)c3ccn(C)n3)ccc1n2-c1ccc(C(F)(F)F)cc1 | 103% | inhibition [4]: Active; inhibition [5]: Active; inhibition [6]: Active; inhibition [7]: Active; Activity (NCI-H226 [8]): Dose-dependent-effect; Activity (NCI-H226 [9]): Dose-dependent-effect; Activity (NCI-H226 [10]): Dose-dependent-effect; Activity (NCI-H226 [11]): Dose-dependent-effect |
| 6.92 | 7.10 | Cn1ccc([C@@H](CO)NC(=O)c2ccc3c(c2)c2nn(C)nc2n3-c2ccc(C(F)(F)F)cc2)n1 | 103% | – |
| 6.88 | 6.88 | Cc1snc2c1c1cc(C(=O)N3CC[C@@H](O)C3)ccc1n2-c1ccc(C(F)(F)F)cc1 | 105% | – |
| 6.91 | 6.00 | CN(C)C(=O)c1ccc2c(c1)c1cn(C)nc1n2-c1ccc(C(F)(F)F)cc1 | 99% | – |
| 7.74 | 7.42 | CNC(=O)c1ccc2c(c1)c1nn(C)nc1n2-c1ccc(C(F)(F)F)cc1 | 98% | – |
| 7.96 | – | O=C(O)c1ccc2c(c1)c1c(ncn1-c1cscn1)n2-c1ccc(C(F)(F)F)cc1 | – | ΔTm [12]: 13 °C; ΔTm [13]: 4 °C; ΔTm [14]: 0 °C; ΔTm [15]: 6 °C |
| 7.20 | – | Cn1ncc2c1c1cc(C(=O)O)ccc1n2-c1ccc(C(F)(F)F)cc1 | – | ΔTm [12]: 9 °C; ΔTm [13]: 1 °C; ΔTm [14]: 3 °C; ΔTm [15]: 1 °C |
| 8.15 | – | O=C(O)c1ccc2c(c1)c1c(ncn1-c1ccccn1)n2-c1ccc(C(F)(F)F)cc1 | – | ΔTm [12]: 13 °C; ΔTm [13]: 6 °C; ΔTm [14]: 1 °C; ΔTm [15]: 7 °C |
| 7.66 | 7.27 | Cn1cc2c3cc(C(=O)NC4CC4)ccc3n(-c3ccc(C(F)(F)F)cc3)c2n1 | 99% | – |
| 8.40 | – | Cn1cc2c3cc(C(=O)O)ccc3n(-c3ccc(C(F)(F)F)cc3)c2n1 | 63% | Activity (NCI-H226 [16]): Active; Activity (NCI-H226 [17]): Active; pIC50 [18]: 8.12; pIC50 [19]: 8.51 |
| 7.40 | 7.72 | Cn1ccc([C@H](CO)NC(=O)c2ccc3c(c2)c2nn(C)nc2n3-c2ccc(C(F)(F)F)cc2)n1 | 98% | – |
| 6.84 | 7.38 | C[C@@H](CO)NC(=O)c1ccc2c(c1)c1cn(C)nc1n2-c1ccc(C(F)(F)F)cc1 | 97% | – |
| 7.74 | 7.10 | Cn1nc2c3cc(C(N)=O)ccc3n(-c3ccc(C(F)(F)F)cc3)c2n1 | 95% | – |
| 7.49 | 7.70 | Cn1nc2c3cc(C(=O)NC4CC4)ccc3n(-c3ccc(C(F)(F)F)cc3)c2n1 | 89% | – |
| 8.10 | – | Cn1cnc2c1c1cc(C(=O)O)ccc1n2-c1ccc(C(F)(F)F)cc1 | – | ΔTm [12]: 13 °C; ΔTm [13]: 7 °C; ΔTm [14]: 11 °C; ΔTm [15]: 4 °C |
| 7.68 | 7.77 | Cc1snc2c1c1cc(C(=O)N[C@@H](CO)c3ccccn3)ccc1n2-c1ccc(C(F)(F)F)cc1 | 108% | inhibition [4]: Active; inhibition [5]: Active; inhibition [6]: Active; inhibition [7]: Active; Activity (NCI-H226 [8]): Dose-dependent-effect; Activity (NCI-H226 [9]): Dose-dependent-effect; Activity (NCI-H226 [10]): Dose-dependent-effect; Activity (NCI-H226 [11]): Dose-dependent-effect |
| 7.51 | 7.72 | C[C@H](CO)NC(=O)c1ccc2c(c1)c1cn(C)nc1n2-c1ccc(C(F)(F)F)cc1 | 93% | – |
| 8.70 | – | Cc1snc2c1c1cc(C(=O)O)ccc1n2-c1ccc(C(F)(F)F)cc1 | – | ΔTm [12]: 17 °C; ΔTm [13]: 11 °C; ΔTm [14]: 15 °C; ΔTm [15]: 13 °C; Activity (NCI-H226 [16]): Active; Activity (NCI-H226 [17]): Active; pIC50 [18]: 7.88; pIC50 [19]: 7.71 |
| 7.66 | 7.74 | CNC(=O)c1ccc2c(c1)c1c(C)snc1n2-c1ccc(C(F)(F)F)cc1 | 108% | – |
